Results taken from patent publication US11021467B2, “Phosphatidylinositol 3-kinase inhibitors” (Gilead Sciences, Inc., priority 2014, dated 2021).

Assays:
Assay in all cases: TR-FRET enzymatic activity assay against PI3K isoforms
Assay type in all cases: biochemical
[1] = target: PI3Kβ (Homo sapiens (Human), UniProt P42338); details: for IC50: PI3Kβ, TR-FRET, 2×Km ATP, 30 minutes at 25° C.
Description: (§1) The compounds of formula (I) were characterized for their enzymatic activity against the PI3K isoforms. […] TR-FRET monitored the formation of 3,4,5-inositol triphosphate molecule that competed with fluorescently labeled PIP3 for binding to the GRP-1 pleckstrin homology domain protein.

[2] = target: PI3Kγ (Homo sapiens (Human), UniProt P48736); details: 2×Km ATP, 30 minutes at 25° C.
Description: as §1

[3] = target: PI3Kδ (Homo sapiens (Human), UniProt O00329); details: 2×Km ATP, 30 minutes at 25° C.
Description: as §1

PI3Kδ, sequence (O00329 whole entry): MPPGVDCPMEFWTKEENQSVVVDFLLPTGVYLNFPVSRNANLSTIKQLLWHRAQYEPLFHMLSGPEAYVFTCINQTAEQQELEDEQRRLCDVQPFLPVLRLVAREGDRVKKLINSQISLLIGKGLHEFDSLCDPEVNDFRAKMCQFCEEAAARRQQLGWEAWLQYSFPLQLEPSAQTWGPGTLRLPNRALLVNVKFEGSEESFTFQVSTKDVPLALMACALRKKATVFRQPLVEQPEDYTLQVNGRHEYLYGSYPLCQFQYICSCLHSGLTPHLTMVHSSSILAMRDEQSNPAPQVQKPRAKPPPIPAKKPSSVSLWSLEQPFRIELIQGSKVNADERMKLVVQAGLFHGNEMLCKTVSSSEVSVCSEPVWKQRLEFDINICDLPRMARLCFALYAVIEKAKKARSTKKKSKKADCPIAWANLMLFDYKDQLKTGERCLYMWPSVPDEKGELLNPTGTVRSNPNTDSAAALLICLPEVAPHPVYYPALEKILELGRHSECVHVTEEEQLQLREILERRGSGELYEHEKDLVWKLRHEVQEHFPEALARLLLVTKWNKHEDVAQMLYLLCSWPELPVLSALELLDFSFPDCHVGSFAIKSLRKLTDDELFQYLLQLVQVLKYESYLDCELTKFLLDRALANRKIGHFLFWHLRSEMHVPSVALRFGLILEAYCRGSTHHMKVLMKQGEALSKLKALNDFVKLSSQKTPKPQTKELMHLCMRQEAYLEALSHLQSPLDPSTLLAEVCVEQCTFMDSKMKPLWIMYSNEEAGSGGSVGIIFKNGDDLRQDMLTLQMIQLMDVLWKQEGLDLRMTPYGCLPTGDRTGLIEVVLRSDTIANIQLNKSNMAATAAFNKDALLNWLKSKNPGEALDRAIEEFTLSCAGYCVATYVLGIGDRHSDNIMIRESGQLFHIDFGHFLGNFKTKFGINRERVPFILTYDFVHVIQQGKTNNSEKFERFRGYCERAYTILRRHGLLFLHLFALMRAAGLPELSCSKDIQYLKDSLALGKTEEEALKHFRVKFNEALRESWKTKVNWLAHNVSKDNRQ
PI3Kδ, sequence (P27986 whole entry partner): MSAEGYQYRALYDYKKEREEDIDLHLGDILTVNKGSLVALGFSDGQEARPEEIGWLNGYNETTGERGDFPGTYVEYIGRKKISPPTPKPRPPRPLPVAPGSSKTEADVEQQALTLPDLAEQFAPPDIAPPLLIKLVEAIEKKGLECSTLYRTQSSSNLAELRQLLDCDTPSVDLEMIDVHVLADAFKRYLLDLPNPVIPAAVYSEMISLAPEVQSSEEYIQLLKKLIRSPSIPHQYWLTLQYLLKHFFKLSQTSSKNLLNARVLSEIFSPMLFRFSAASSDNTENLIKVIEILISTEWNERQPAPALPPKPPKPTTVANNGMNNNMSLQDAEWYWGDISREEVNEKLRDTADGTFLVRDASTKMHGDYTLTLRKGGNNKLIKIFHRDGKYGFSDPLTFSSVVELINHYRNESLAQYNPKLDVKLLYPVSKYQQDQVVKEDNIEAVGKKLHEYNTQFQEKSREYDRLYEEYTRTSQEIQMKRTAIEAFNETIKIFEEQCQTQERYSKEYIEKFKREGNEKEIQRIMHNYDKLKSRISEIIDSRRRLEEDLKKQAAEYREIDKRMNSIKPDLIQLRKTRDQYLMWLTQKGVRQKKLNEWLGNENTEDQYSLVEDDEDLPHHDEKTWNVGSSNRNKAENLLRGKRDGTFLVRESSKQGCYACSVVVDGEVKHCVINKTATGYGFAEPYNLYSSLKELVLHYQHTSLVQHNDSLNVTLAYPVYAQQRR
PI3Kβ, sequence (P42338 whole entry, the tested form may be a part, canonical isoform): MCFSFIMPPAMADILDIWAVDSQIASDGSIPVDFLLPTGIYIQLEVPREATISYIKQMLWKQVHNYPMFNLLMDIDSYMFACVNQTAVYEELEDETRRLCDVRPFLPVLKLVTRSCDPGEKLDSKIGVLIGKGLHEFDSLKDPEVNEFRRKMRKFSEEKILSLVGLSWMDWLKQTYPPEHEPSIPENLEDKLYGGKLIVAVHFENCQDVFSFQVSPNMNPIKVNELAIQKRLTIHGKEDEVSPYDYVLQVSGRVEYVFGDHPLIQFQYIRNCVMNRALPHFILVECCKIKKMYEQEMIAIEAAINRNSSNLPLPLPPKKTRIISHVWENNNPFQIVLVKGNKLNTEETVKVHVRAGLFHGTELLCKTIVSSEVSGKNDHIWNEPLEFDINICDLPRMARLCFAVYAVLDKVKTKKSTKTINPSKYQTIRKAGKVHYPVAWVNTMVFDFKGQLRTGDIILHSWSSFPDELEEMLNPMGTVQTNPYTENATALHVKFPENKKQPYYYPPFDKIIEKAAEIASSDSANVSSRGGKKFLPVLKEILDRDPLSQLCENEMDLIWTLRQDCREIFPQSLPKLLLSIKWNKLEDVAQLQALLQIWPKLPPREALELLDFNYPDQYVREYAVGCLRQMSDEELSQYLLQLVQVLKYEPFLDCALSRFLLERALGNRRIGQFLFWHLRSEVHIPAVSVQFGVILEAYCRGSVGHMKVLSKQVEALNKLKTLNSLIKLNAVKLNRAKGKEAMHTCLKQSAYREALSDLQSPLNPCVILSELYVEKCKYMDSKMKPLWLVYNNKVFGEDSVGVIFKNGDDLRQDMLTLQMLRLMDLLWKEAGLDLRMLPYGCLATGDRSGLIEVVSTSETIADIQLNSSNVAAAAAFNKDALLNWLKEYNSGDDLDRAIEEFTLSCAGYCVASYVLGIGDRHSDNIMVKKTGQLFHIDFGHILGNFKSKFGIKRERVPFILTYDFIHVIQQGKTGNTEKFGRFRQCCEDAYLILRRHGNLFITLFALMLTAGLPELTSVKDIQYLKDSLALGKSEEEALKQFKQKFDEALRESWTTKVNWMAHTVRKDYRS
PI3Kβ, sequence (P27986 whole entry partner, the tested form may be a part, canonical isoform): as the sequence (P27986 whole entry partner) above
PI3Kγ, sequence (P48736 whole entry): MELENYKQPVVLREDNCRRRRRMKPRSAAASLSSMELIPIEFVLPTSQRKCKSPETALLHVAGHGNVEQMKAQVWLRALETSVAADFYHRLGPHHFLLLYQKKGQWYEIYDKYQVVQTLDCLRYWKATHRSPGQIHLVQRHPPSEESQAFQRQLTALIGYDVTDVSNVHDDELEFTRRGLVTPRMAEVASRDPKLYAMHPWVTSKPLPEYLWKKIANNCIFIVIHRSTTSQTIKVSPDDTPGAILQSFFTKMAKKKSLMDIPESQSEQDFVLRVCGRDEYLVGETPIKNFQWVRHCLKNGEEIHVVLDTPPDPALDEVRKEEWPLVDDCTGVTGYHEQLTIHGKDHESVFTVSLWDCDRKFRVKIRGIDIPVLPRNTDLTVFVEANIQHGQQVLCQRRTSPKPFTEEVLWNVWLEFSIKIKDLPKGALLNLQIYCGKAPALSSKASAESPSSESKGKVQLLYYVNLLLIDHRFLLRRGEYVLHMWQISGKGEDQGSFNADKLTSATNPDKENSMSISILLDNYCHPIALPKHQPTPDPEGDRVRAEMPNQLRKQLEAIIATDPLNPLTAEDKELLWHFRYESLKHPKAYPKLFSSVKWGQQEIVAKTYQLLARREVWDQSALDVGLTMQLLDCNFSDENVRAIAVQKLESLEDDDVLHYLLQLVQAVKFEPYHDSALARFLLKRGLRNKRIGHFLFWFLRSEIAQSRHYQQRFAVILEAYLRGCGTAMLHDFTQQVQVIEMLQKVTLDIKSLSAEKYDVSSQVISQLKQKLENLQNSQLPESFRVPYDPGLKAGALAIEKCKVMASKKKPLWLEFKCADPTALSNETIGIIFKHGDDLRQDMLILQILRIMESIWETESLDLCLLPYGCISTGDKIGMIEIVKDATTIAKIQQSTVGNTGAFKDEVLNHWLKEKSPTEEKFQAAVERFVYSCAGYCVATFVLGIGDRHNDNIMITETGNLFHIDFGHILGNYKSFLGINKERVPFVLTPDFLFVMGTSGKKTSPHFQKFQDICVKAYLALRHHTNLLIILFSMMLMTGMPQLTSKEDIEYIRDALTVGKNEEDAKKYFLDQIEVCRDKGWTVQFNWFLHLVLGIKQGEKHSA

SMILES	IC50 [1] [nM]	IC50 [2] [nM]	IC50 [3] [nM]	PI3Kγ/PI3Kβ ratio ([1]; ratio of IC50 values, selectivity for PI3Kβ over PI3Kγ)
CC(CN)Cn1c([C@H](C)Nc2ncnc(N)c2C#N)nc2cccc(Cl)c2c1=O (stereo partly drawn) [Compound 27, 4-amino-6-(((1S)-1-(3-(3-amino-2-methylpropyl)-5-chloro-4-oxo-3,4-dihydroquinazolin-2-yl)ethyl)amino)pyrimidine-5-carbonitrile]	200	≥ 10000	7	–
C[C@H](Nc1ncnc(N)c1C#N)c1nc2cccc(Cl)c2c(=O)n1CCCCN [Compound 28, (S)-4-amino-6-((1-(3-(4-aminobutyl)-5-chloro-4-oxo-3,4-dihydroquinazolin-2-yl)ethyl)amino)pyrimidine-5-carbonitrile]	100	≥ 10000	3	–
Cc1cccc2nc([C@H](C)Nc3ncnc(N)c3C#N)n(CCCN)c(=O)c12 [Compound 29, (S)-4-amino-6-((1-(3-(3-aminopropyl)-5-methyl-4-oxo-3,4-dihydroquinazolin-2-yl)ethyl)amino)pyrimidine-5-carbonitrile]	47	≥ 10000	7	–
C[C@H](Nc1ncnc(N)c1Cl)c1nc2cccc(Cl)c2c(=O)n1CCCN [Compound 30, (S)-2-(1-((6-amino-5-chloropyrimidin-4-yl)amino)ethyl)-3-(3-aminopropyl)-5-chloroquinazolin-4(3H)-one]	110	≥ 10000	11	–
CNCCCn1c([C@H](C)Nc2ncnc(N)c2C#N)nc2cccc(Cl)c2c1=O [Compound 31, (S)-4-amino-6-((1-(5-chloro-3-(3-(methylamino)propyl)-4-oxo-3,4-dihydroquinazolin-2-yl)ethyl)amino)pyrimidine-5-carbonitrile]	47	≥ 10000	6	–
C[C@H](NC(=O)c1c(N)nn2cccnc12)c1nc2cccc(Cl)c2c(=O)n1CCCN [Compound 32, (S)-2-amino-N-(1-(3-(3-aminopropyl)-5-chloro-4-oxo-3,4-dihydroquinazolin-2-yl)ethyl)pyrazolo[1,5-a]pyrimidine-3-carboxamide]	44	3200	92	–
CC(C)C[C@H](Nc1ncnc(N)c1C#N)c1nc2cccc(Cl)c2c(=O)n1CCCN [Compound 33, (S)-4-amino-6-((1-(3-(3-aminopropyl)-5-chloro-4-oxo-3,4-dihydroquinazolin-2-yl)-3-methylbutyl)amino)pyrimidine-5-carbonitrile]	2100	≥ 10000	210	–
CC[C@H](Nc1ncnc(N)c1C#N)c1nc2cccc(Cl)c2c(=O)n1CCCN [Compound 34, (S)-4-amino-6-((1-(3-(3-aminopropyl)-5-chloro-4-oxo-3,4-dihydroquinazolin-2-yl)propyl)amino)pyrimidine-5-carbonitrile]	250	≥ 10000	79	–
NCCCn1c([C@@H](Nc2ncnn3ccnc23)C2CC2)nc2cccc(Cl)c2c1=O [Compound 35, (S)-3-(3-aminopropyl)-5-chloro-2-(cyclopropyl(imidazo[2,1-][1,2,4]triazin-4-ylamino)methyl)quinazolin-4(3H)-one]	110	≥ 10000	21	–
CC[C@H](Nc1nc(N)nc(N)c1C#N)c1nc2cccc(Cl)c2c(=O)n1CCCN [Compound 36, (S)-2,4-diamino-6-((1-(3-(3-aminopropyl)-5-chloro-4-oxo-3,4-dihydroquinazolin-2-yl)propyl)amino)pyrimidine-5-carbonitrile]	71	8200	27	–
NCCCn1c([C@@H](Nc2ncnc3cccnc23)C2CC2)nc2cccc(Cl)c2c1=O [Compound 37, (S)-3-(3-aminopropyl)-5-chloro-2-(cyclopropyl(pyrido[3,2-d]pyrimidin-4-ylamino)methyl)quinazolin-4(3H)-one]	57	4800	16	–
NCCCn1c([C@@H](Nc2nc(N)nc(N)c2Cl)C2CC2)nc2cccc(Cl)c2c1=O [Compound 38, (S)-3-(3-aminopropyl)-5-chloro-2-(cyclopropyl((2,6-diamino-5-chloropyrimidin-4-yl)amino)methyl)quinazolin-4(3H)-one]	44	≥ 10000	12	–
CNCCCn1c([C@H](C)Nc2nc(N)nc(N)c2C#N)nc2cccc(Cl)c2c1=O [Compound 39, (S)-2,4-diamino-6-((1-(5-chloro-3-(3-(methylamino)propyl)-4-oxo-3,4-dihydroquinazolin-2-yl)ethyl)amino)pyrimidine-5-carbonitrile]	25	2400	3	–
N#Cc1c(N)ncnc1N[C@H](c1nc2cccc(Cl)c2c(=O)n1CCCN)C1CC1 [Compound 40, (S)-4-amino-6-(((3-(3-aminopropyl)-5-chloro-4-oxo-3,4-dihydroquinazolin-2-yl)(cyclopropyl)methyl)amino)pyrimidine-5-carbonitrile]	21	≥ 10000	9	–
CNCCCn1c([C@H](C)Nc2nc(N)nc(C)c2C#N)nc2cccc(Cl)c2c1=O [Compound 41, (S)-2-amino-4-((1-(5-chloro-3-(3-(methylamino)propyl)-4-oxo-3,4-dihydroquinazolin-2-yl)ethyl)amino)-6-methylpyrimidine-5-carbonitrile]	15	1800	3	–
C[C@H](Nc1nc(N)nc(N)c1C#N)c1nc2cccc(Cl)c2c(=O)n1CCCN [Compound 42, (S)-2,4-diamino-6-((1-(3-(3-aminopropyl)-5-chloro-4-oxo-3,4-dihydroquinazolin-2-yl)ethyl)amino)pyrimidine-5-carbonitrile]	15	1400	2	–
NCCCn1c([C@@H](Nc2ncnc3[nH]cc(Br)c23)C2CC2)nc2cccc(Cl)c2c1=O [Compound 43, (S)-3-(3-aminopropyl)-2-(((5-bromo-7H-pyrrolo[2,3-d]pyrimidin-4-yl)amino)(cyclopropyl)methyl)-5-chloroquinazolin-4(3H)-one]	7	3400	6	–
N#Cc1c(Cl)nc(N)nc1N[C@H](c1nc2cccc(Cl)c2c(=O)n1CCCN)C1CC1 [Compound 44, (S)-2-amino-4-(((3-(3-aminopropyl)-5-chloro-4-oxo-3,4-dihydroquinazolin-2-yl)(cyclopropyl)methyl)amino)-6-chloropyrimidine-5-carbonitrile]	8	6000	11	–
NCCCn1c([C@@H](Nc2ncnc3scnc23)C2CC2)nc2cccc(Cl)c2c1=O [Compound 45, (S)-3-(3-aminopropyl)-5-chloro-2-(cyclopropyl(thiazolo[5,4-d]pyrimidin-7-ylamino)methyl)quinazolin-4(3H)-one]	7	2100	4	–
CNCCCn1c([C@@H](Nc2nc(N)nc(N)c2C#N)C2CC2)nc2cccc(Cl)c2c1=O [Compound 46, (S)-2,4-diamino-6-(((5-chloro-3-(3-(methylamino)propyl)-4-oxo-3,4-dihydroquinazolin-2-yl)(cyclopropyl)methyl)amino)pyrimidine-5-carbonitrile]	6	2500	3	–
N#Cc1c(N)nc(N)nc1N[C@H](c1nc2cccc(Cl)c2c(=O)n1CCCN)C1CC1 [Compound 47, (S)-2,4-diamino-6-(((3-(3-aminopropyl)-5-chloro-4-oxo-3,4-dihydroquinazolin-2-yl)(cyclopropyl)methyl)amino)pyrimidine-5-carbonitrile]	5	1100	3	230
NCCCn1c([C@@H](Nc2ncnc3ccc(Cl)nc23)C2CC2)nc2cccc(Cl)c2c1=O [Compound 48, (S)-3-(3-aminopropyl)-5-chloro-2-(((6-chloropyrido[3,2-d]pyrimidin-4-yl)amino)(cyclopropyl)methyl)quinazolin-4(3H)-one]	4	900	4	–
Cc1nc(N)nc(N[C@H](c2nc3cccc(Cl)c3c(=O)n2CCCN)C2CC2)c1C#N [Compound 49, (S)-2-amino-4-(((3-(3-aminopropyl)-5-chloro-4-oxo-3,4-dihydroquinazolin-2-yl)(cyclopropyl)methyl)amino)-6-methylpyrimidine-5-carbonitrile]	1	750	1	–
C[C@H](NC(=O)c1nc(Br)c(N)nc1N)c1nc2cccc(Cl)c2c(=O)n1CCCN [Compound 50, (S)-3,5-diamino-N-(1-(3-(3-aminopropyl)-5-chloro-4-oxo-3,4-dihydroquinazolin-2-yl)ethyl)-6-bromopyrazine-2-carboxamide]	75	4600	71	–
CC(=O)NCCCn1c([C@H](C)Nc2ncnc(N)c2C#N)nc2cccc(Cl)c2c1=O [Compound 51, (S)—N-(3-(2-(1-((6-amino-5-cyanopyrimidin-4-yl)amino)ethyl)-5-chloro-4-oxoquinazolin-3(4H)-yl)propyl)acetamide]	110	5500	8	–
CC(C)(C)C(=O)NCCCn1c([C@@H](Nc2nc(N)nc(N)c2C#N)C2CC2)nc2cccc(Cl)c2c1=O [Compound 52, (S)—N-(3-(5-chloro-2-(cyclopropyl((2,6-diamino-5-cyanopyrimidin-4-yl)amino)methyl)-4-oxoquinazolin-3(4H)-yl)propyl)pivalamide]	29	1200	4	–
